Reference: patent US11390621B2, “Chiral indole compounds and their use” (ARIAGEN, INC., priority 2019, dated 2022)
Values joined by “and” are separate entries in the source; they are usually repeats but may differ in a detail not shown here. Equal values may be shown once.

Legend:
Type in all cases: in vitro ADME
[1] = biological target: T1, CYP1A2 (Homo sapiens, UniProt P05177); assay: CYP profiling: human liver microsomes with CYP1A2 inhibitor furafylline; design: % Compound Metabolized at 30 min, CYP1A2 Inhibitor: concentration or dose not given beside the values; conditions: HLMs; for % Inhibition Relative to Negative Control, 1A2: 30 min
T1 construct: from tissue; host or cells: human liver microsomes
T1 sequence (P05177 1-516): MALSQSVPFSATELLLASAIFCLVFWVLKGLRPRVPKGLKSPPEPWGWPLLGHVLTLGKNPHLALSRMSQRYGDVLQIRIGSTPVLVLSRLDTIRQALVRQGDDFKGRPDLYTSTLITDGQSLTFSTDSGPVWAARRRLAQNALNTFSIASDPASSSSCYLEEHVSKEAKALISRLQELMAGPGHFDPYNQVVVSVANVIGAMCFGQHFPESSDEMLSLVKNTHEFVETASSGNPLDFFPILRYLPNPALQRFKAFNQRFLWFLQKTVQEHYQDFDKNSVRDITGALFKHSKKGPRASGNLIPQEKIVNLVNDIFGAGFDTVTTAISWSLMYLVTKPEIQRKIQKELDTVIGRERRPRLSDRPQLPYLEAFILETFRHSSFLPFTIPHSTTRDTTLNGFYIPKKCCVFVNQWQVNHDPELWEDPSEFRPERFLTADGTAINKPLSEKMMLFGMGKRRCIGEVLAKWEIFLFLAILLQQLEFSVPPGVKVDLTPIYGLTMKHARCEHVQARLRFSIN
Procedure: (§1) In order to investigate the contributions of CYP1A2 and CYP3A4 to the metabolism of the compounds of the present disclosure, human liver microsomes were incubated with the test compounds for 30 minutes in the presence of selective chemical inhibitors furafylline (1A2) and ketoconazole (3A4).

[2] = biological target: T2, CYP3A4 (Homo sapiens, UniProt P08684); assay: CYP profiling: human liver microsomes with CYP3A4 inhibitor ketoconazole; design: % Compound Metabolized at 30 min, CYP3A4 Inhibitor: concentration or dose not given beside the values; conditions: HLMs; for % Inhibition Relative to Negative Control, 3A4: 30 min
T2 construct: from tissue; host or cells: human liver microsomes
Procedure: as §1

[3] = CYP profiling: turnover in human liver microsomes, 30 min, no inhibitor; design: % Compound Metabolized at 30 min, No Inhibitor: concentration or dose not given beside the values; conditions: HLMs
Procedure: as §1

[4] = system: rat hepatocytes; assay: Hepatocyte intrinsic clearance assay (metabolic stability), rat hepatocytes; conditions: Rat Hepatocytes; well stirred liver model, fu=1
Excerpt: (§2) The liver is an important organ in the body for drug metabolism. This Example describes hepatocyte intrinsic clearance assays using both human and rat hepatocytes to evaluate the metabolic stability of the indole compounds disclosed herein. The parameters measured include t1/2 (half-life), CLint (intrinsic clearance), and EH (hepatic extraction ratio).
(§3) Testosterone (Lot FE111011-01) was obtained from Cerilliant (Round Rock, Tex.). 7-hydroxycoumarin (Lot 11631ED) was obtained from Sigma Aldrich (St. Louis, Mo.). Cryopreserved human hepatocytes pooled from ten donor males (X008001), cryopreserved male IRC/CD-1 mouse hepatocytes (M005052), INVITROGRO HI Medium (incubation), and INVITROGRO HT Medium (thawing) were obtained from Bioreclamation IVT (Baltimore, Md.). All solvents were obtained from commercial sources and used without further purification.
(§4) Each test compound was prepared as a 1 mM stock solution in DMSO. A 2 μM solution of test compound and positive controls were prepared in INVITROGRO HI Medium (incubation). These solutions were pre-warmed in a sterile incubator set to maintain 37° C., 5% CO2, and 98% humidity. Cryopreserved hepatocytes were prepared at a concentration of 2×10^6 living cells/mL in incubation media and pre-warmed in the incubator. The compound solutions and hepatocyte mixtures were then combined at a ratio of 1:1 (v:v). The final volume of the reaction mixture was 750 μL, containing 1 μM test compound (10 μM for 7-hydroxycoumarin) and […]. The reaction mixture was placed in the incubator on a plate shaker. After 0, 15, 30, 60, 90, and 120 minutes of incubation, 100 μL of reaction mixtures were removed from the incubation plate and mixed with 150 μL of ice-cold acetonitrile in a designated well of a 96-well crash plate. The 96-well crash plate was placed on ice for 15 min, and samples were centrifuged (3,600 RPM, 10 min, 4° C.) to precipitate protein. The supernatants were diluted 1:1 (v:v) with water containing 0.15 μM verapamil and/or 1 μM tolbutamide (internal standards for positive and negative modes, respectively) in a 96-well shallow injection plate. This plate was sealed for LC-MS analysis. All measurements were done in duplicate.
(§5) The residual compound remaining (% R) was determined from LC-MS peak areas by comparison to the zero time point. Metabolic half-life (t1/2) and intrinsic clearance (CLint) values were calculated from the slope of the plot of ln (% R) vs. time and the concentration of hepatocytes present in the incubation. Percent remaining at 60 minutes was calculated by plugging in the 60 minute value into the slope equation generated by the percent remaining time points.
(§6) In vivo hepatic clearance CLH was calculated using the well stirred liver model according to the following equation:
(§7) [formula] where QH is the total liver blood flow, fu is unbound fraction of the drug, and CL′int is defined as follows: CL′int=CLint×(10^6 cells/g of liver weight)×(g liver weight/kg of body weight). In the first approximation, used in this study, fu=1.
(§8) Hepatic extraction ratio EH was calculated using the following equation:
(§9) [formula] Corresponding physiological parameters used in calculations for all species are shown below in Table 3.

[5] = as above; conditions: rat, cryopreserved hepatocytes, Rat Hepatocytes, 1 μM test compound
Excerpt: as §2, §3, §4, §5, §6, §7, §8, §9

[6] = Hepatocyte intrinsic clearance assay (metabolic stability), human hepatocytes; conditions: male, human, cryopreserved pooled hepatocytes, Human Hepatocytes, 1 μM test compound
Excerpt: as §2, §3, §4, §5, §6, §7, §8, §9

[7] = system: human hepatocytes; assay: as above; conditions: Human Hepatocytes; well stirred liver model, fu=1
Excerpt: as §2, §3, §4, §5, §6, §7, §8, §9

T2 sequence (P08684 whole entry): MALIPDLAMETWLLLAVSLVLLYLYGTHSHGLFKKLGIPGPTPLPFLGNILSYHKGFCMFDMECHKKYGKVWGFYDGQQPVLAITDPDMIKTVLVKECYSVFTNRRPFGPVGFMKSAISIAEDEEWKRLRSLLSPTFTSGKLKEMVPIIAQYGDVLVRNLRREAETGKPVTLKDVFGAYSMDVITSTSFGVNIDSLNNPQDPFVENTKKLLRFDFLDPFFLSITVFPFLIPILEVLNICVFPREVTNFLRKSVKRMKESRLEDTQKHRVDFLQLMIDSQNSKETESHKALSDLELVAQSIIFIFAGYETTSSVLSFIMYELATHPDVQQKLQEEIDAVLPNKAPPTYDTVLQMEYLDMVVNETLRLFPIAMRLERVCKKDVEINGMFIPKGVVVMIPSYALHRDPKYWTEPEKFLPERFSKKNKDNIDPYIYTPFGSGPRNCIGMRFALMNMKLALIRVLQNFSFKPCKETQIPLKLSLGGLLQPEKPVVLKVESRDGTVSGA

NC(c1csc(C(=O)c2c[nH]c3ccccc23)n1)C(F)(F)F (stereo not drawn) [ARI-100]
% Compound Metabolized at 30 min, CYP1A2 Inhibitor [1]: 0% | % Inhibition Relative to Negative Control, 1A2 [1]: 100% | % Compound Metabolized at 30 min, CYP3A4 Inhibitor [2]: 8% | % Inhibition Relative to Negative Control, 3A4 [2]: None | % Compound Metabolized at 30 min, No Inhibitor [3]: 2% | EH (hepatic extraction ratio) [4]: 36.9% | half-life at 1 μM [5]: 1.3 h | hepatocyte CLint at 1 μM [5]: 8.73 µL/min/1e6 cells | half-life at 1 μM [6]: 46.1 h | hepatocyte CLint at 1 μM [6]: 0.251 µL/min/1e6 cells | EH (hepatic extraction ratio) [7]: 1.9%

Cc1ncc2n1-c1ccc(Cl)cc1C(c1ccccc1F)=NC2 [Midazolam]
% Compound Metabolized at 30 min, CYP1A2 Inhibitor [1]: 96% | % Inhibition Relative to Negative Control, 1A2 [1]: 2% | % Compound Metabolized at 30 min, CYP3A4 Inhibitor [2]: 1% and 0% | % Inhibition Relative to Negative Control, 3A4 [2]: 99% and 100% | % Compound Metabolized at 30 min, No Inhibitor [3]: 98% and 97%

CCOc1ccc(NC(C)=O)cc1 [Phenacitin]
% Compound Metabolized at 30 min, CYP1A2 Inhibitor [1]: 3% and 1% | % Inhibition Relative to Negative Control, 1A2 [1]: 92% and 97% | % Compound Metabolized at 30 min, CYP3A4 Inhibitor [2]: 23% | % Inhibition Relative to Negative Control, 3A4 [2]: 36% | % Compound Metabolized at 30 min, No Inhibitor [3]: 36% and 31%
